In patent publication US20080255107A1, “Fungicidal Mixtures Comprising N-[2-(Haloalk(Enyl)Oxy)Phenyl]Carboxamides” (BASF SE, priority 2005, published 2008):

Key:
Format in all cases: in vivo
[1] = tested on: Botrytis cinerea; assay: Activity against gray mold on bell pepper leaves caused by Botrytis cinerea, 1 day protective application; details: single active compound, assessed after 5 days
Description: The active compounds, separately or jointly, were prepared as a stock solution comprising 25 mg of active compound which was made up to 10 ml using a mixture of acetone and/or dimethyl sulfoxide and the emulsifier Uniperol® EL (wetting agent having an emulsifying and dispersing action based on ethoxylated alkylphenols) in a ratio by volume of solvent/emulsifier of 99:1. The mixture was then made up to 100 ml with water. This stock solution was diluted with the solvent/emulsifier/water mixture described to give the concentration of active compound stated below. Alternatively, the active compounds triticonazole and pyraclostrobin were used as a commercial finished formulation and diluted with water to the stated active compound concentrations. The visually determined percentages of infected leaf areas were converted into efficacies in % of the untreated control: The efficacy (E) is calculated as follows using Abbot's formula: E=(1−α/β)·100 α corresponds to the fungicidal infection of the treated plants in % and β corresponds to the fungicidal infection of the untreated (control) plants in % An efficacy of 0 means that the infection level of the treated plants corresponds to that of the untreated control plants; an efficacy of 100 means that the treated plants were not infected. The expected efficacies of active compound combinations were determined using Colby's formula (Colby, S. R. “Calculating synergistic and antagonistic responses of herbicide combinations”, Weeds, 15, pp. 20-22, 1967) and compared with the observed efficacies. E=x+y−x·y/100 Colby's formula • E expected efficacy, expressed in % of the untreated control, when using the mixture of the active compounds A and B at the concentrations a and b; • x efficacy, expressed in % of the untreated control, when using the active compound A at the concentration a; • y efficacy, expressed in % of the untreated control, when using the active compound B at the concentration b. […] After 5 days, the extent of the fungal infection on the leaves could be determined visually in %.

[2] = tested on: Puccinia recondita; assay: Curative activity against brown rust of wheat caused by Puccinia recondita; details: single active compound, wheat seedlings, sprayed 1 day after inoculation, read after 7 days, efficacy in % of untreated control (Abbot)
Description: The active compounds, separately or jointly, were prepared as a stock solution comprising 25 mg of active compound which was made up to 10 ml using a mixture of acetone and/or dimethyl sulfoxide and the emulsifier Uniperol® EL (wetting agent having an emulsifying and dispersing action based on ethoxylated alkylphenols) in a ratio by volume of solvent/emulsifier of 99:1. The mixture was then made up to 100 ml with water. This stock solution was diluted with the solvent/emulsifier/water mixture described to give the concentration of active compound stated below. Alternatively, the active compounds triticonazole and pyraclostrobin were used as a commercial finished formulation and diluted with water to the stated active compound concentrations. The visually determined percentages of infected leaf areas were converted into efficacies in % of the untreated control: The efficacy (E) is calculated as follows using Abbot's formula: E=(1−α/β)·100 α corresponds to the fungicidal infection of the treated plants in % and β corresponds to the fungicidal infection of the untreated (control) plants in % An efficacy of 0 means that the infection level of the treated plants corresponds to that of the untreated control plants; an efficacy of 100 means that the treated plants were not infected. The expected efficacies of active compound combinations were determined using Colby's formula (Colby, S. R. “Calculating synergistic and antagonistic responses of herbicide combinations”, Weeds, 15, pp. 20-22, 1967) and compared with the observed efficacies. E=x+y−x·y/100 Colby's formula • E expected efficacy, expressed in % of the untreated control, when using the mixture of the active compounds A and B at the concentrations a and b; • x efficacy, expressed in % of the untreated control, when using the active compound A at the concentration a; • y efficacy, expressed in % of the untreated control, when using the active compound B at the concentration b. […] The extent of the rust fungus development on the leaves was then determined.

[3] = tested on: Alternaria solani; assay: Activity against early blight of tomato caused by Alternaria solani (protective spray, potted tomato plants); details: single active compound, 16 mg/l; tomato leaves, sprayed 1 day before infection, read after 5 days; efficacy in % of untreated control (Abbot)
Description: The active compounds, separately or jointly, were prepared as a stock solution comprising 25 mg of active compound which was made up to 10 ml using a mixture of acetone and/or dimethyl sulfoxide and the emulsifier Uniperol® EL (wetting agent having an emulsifying and dispersing action based on ethoxylated alkylphenols) in a ratio by volume of solvent/emulsifier of 99:1. The mixture was then made up to 100 ml with water. This stock solution was diluted with the solvent/emulsifier/water mixture described to give the concentration of active compound stated below. […] The visually determined percentages of infected leaf areas were converted into efficacies in % of the untreated control: The efficacy (E) is calculated as follows using Abbot's formula: E=(1−α/β)·100 α corresponds to the fungicidal infection of the treated plants in % and β corresponds to the fungicidal infection of the untreated (control) plants in % An efficacy of 0 means that the infection level of the treated plants corresponds to that of the untreated control plants; an efficacy of 100 means that the treated plants were not infected. The expected efficacies of active compound combinations were determined using Colby's formula (Colby, S. R. “Calculating synergistic and antagonistic responses of herbicide combinations”, Weeds, 15, pp. 20-22, 1967) and compared with the observed efficacies. […]

| Compound | Observed activity (% infection) ([1]; 16 mg/l) | Observed activity (% infection) ([1]; 63 mg/l) | Observed activity (% infection) ([2]; 63 mg/l) | Observed efficacy (% of untreated control, Abbott) [3] | Observed activity (% infection) ([2]; 0.25 mg/l) |
| --- | --- | --- | --- | --- | --- |
| COC(=O)N(OC)c1ccccc1COc1ccn(-c2ccc(Cl)cc2)n1 [pyraclostrobin] | 11% |  |  |  |  |
| COc1cc(C)c(C(=O)c2c(OC)ccc(Br)c2C)c(OC)c1OC [Metrafenone, 3′-bromo-2,3,4,6′-tetramethoxy-2′,6-dimethylbenzophenone] |  | 0% | 0% |  |  |
| CC1(C)CC/C(=C\c2ccc(Cl)cc2)C1(O)Cn1cncn1 (stereo not shown) [Triticonazole, (5E)-5-[(4-chlorophenyl)methylene]-2,2-dimethyl-1-(1H-1,2,4-triazol-1-ylmethyl)cyclopentanol] |  |  |  | 20% | 0% |
| COc1ccc(C(=CC(=O)N2CCOCC2)c2ccc(Cl)cc2)cc1OC [Dimethomorph, 3-(4-chlorophenyl)-3-(3,4-dimethoxyphenyl)-1-morpholin-4-yl-propenone] |  | 0% | 0% |  |  |
